Data on 21 compounds can be found in PubChem BioAssay AID330 (DTP/NCI, 2004).

“And” between values parts separate entries of the source, which are not always exact repeats. Identical values can stand only once. Inconclusive results and toxic doses are left out.

The test system of the assay is P388 leukemia ip, CD2F1 mice, survival T/C. Nature of the assay: NCI In Vivo Anticancer Drug Screen. Data for tumor model P388 Leukemia (intraperitoneal) in CD2F1 (CDF1) mice. Particulars: endpoint: median survival time, higher = longer survival. The procedure, abridged: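 Mice carrying the transplanted tumor received test compound or vehicle. Survival was recorded in each group, and the value is the treated-group measurement divided by that of the vehicle-treated control group.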

Setting [1] is: dose: 50.0 mg/kg/injection, schedule: Q01DX009 (ip), vehicle: saline with Tween-80.
Setting [2] is: dose: 100.0 mg/kg/injection, schedule: Q01DX009 (ip), vehicle: saline with Tween-80.
Setting [3] is: dose: 200.0 mg/kg/injection, schedule: Q01DX009 (ip), vehicle: saline with Tween-80.
Setting [4] is: dose: 50.0 mg/kg/injection, schedule: Q01DX005 (ip), vehicle: Klucel (hydroxypropylcellulose) (HPC).
The mark [5] stands for this setting: dose: 100.0 mg/kg/injection, schedule: Q01DX005 (ip), vehicle: Klucel (hydroxypropylcellulose) (HPC).
The mark [6] stands for this setting: dose: 200.0 mg/kg/injection, schedule: Q01DX005 (ip), vehicle: Klucel (hydroxypropylcellulose) (HPC).
Where [7] appears, read: dose: 50.0 mg/kg/injection, schedule: Q01DX009 (ip), vehicle: Klucel (hydroxypropylcellulose) (HPC).
Where [8] appears, read: dose: 100.0 mg/kg/injection, schedule: Q01DX009 (ip), vehicle: Klucel (hydroxypropylcellulose) (HPC).

As to `CSCCC([NH-])C(=O)O.CSCCC([NH-])C(=O)O.[Cu+2]` (stereo not drawn), the T/C runs as follows: (dose: 3.12 mg/kg/injection, schedule: Q01DX009 (ip), vehicle: saline) 102 % of control; (dose: 6.25 mg/kg/injection, schedule: Q01DX009 (ip), vehicle: Klucel (hydroxypropylcellulose) (HPC)) 94 % of control; (dose: 6.25 mg/kg/injection, schedule: Q01DX009 (ip), vehicle: saline) 94 % of control; (dose: 12.5 mg/kg/injection, schedule: Q01DX009 (ip), vehicle: Klucel (hydroxypropylcellulose) (HPC)) 94 % of control; (dose: 12.5 mg/kg/injection, schedule: Q01DX009 (ip), vehicle: saline) 100 % of control.

`CCCCCC(=O)O[C@H]1CC[C@@H]2[C@H]1[C@@H]1CCC=C1C2(C)C`: the T/C is, setting by setting: (dose: 100.0 mg/kg/injection, schedule: Q01DX001 (ip), vehicle: Klucel (hydroxypropylcellulose) (HPC)) 97 % of control; (dose: 200.0 mg/kg/injection, schedule: Q01DX001 (ip), vehicle: Klucel (hydroxypropylcellulose) (HPC)) 99 % of control; (dose: 400.0 mg/kg/injection, schedule: Q01DX001 (ip), vehicle: Klucel (hydroxypropylcellulose) (HPC)) 100 % of control.

As to `COc1ccc(CS(=O)(=O)c2cnc(N3CCN(C)CC3)nc2N)cc1OC`, the T/C was 101 % of control (dose: 100.0 mg/kg/injection, schedule: Q01DX001 (ip), vehicle: saline); 98 % of control (dose: 200.0 mg/kg/injection, schedule: Q01DX001 (ip), vehicle: saline); 98 % of control (dose: 400.0 mg/kg/injection, schedule: Q01DX001 (ip), vehicle: saline).

For `CC(C)S(=O)c1ccc(Cl)cc1[N+](=O)[O-]` (stereo not drawn), the T/C under setting [1] is 99 % of control, the T/C under setting [2] was 99 % of control and the T/C under setting [3] was 100 % of control.

Regarding `C=C1C(=O)OC2CC(C)C3C(OC(C)=O)CC(OC(C)=O)C3(C)CC12` (stereo not drawn), the T/C is 99 % of control (dose: 12.5 mg/kg/injection, schedule: Q04DX002 (ip), vehicle: saline with Tween-80); 106 % of control (dose: 25.0 mg/kg/injection, schedule: Q04DX002 (ip), vehicle: saline with Tween-80); 103 % of control (dose: 50.0 mg/kg/injection, schedule: Q04DX002 (ip), vehicle: saline with Tween-80).

As for `COCCC(=O)NC1CCCC[CH]1[Hg][Cl]` (stereo not drawn), the T/C (dose: 25.0 mg/kg/injection, schedule: Q04DX003 (ip), vehicle: Klucel (hydroxypropylcellulose) (HPC)) was 97 % of control.

For the compound `O=C1OC(c2ccccc2)c2cccnc21` (stereo not drawn), the T/C is 101 % of control (dose: 100.0 mg/kg/injection, schedule: Q04DX002 (ip), vehicle: saline with Tween-80); 92 % of control (dose: 200.0 mg/kg/injection, schedule: Q04DX002 (ip), vehicle: saline with Tween-80); 98 % of control (dose: 400.0 mg/kg/injection, schedule: Q04DX002 (ip), vehicle: saline with Tween-80).

`CC(=O)N(C)c1ccc(N)c2c1C(=O)c1ccccc1C2=O`: the T/C under setting [4] was 106 % of control, the T/C under setting [5] is 94 % of control and the T/C under setting [6] is 106 % of control.

Take `Cc1ccc2nc(CC(O)(c3ccccc3)c3ccccc3)ccc2c1`: the T/C runs as follows: under setting [1], 110 % of control; under setting [2], 95 % of control; under setting [3], 94 % of control.

Consider `COc1ccc(C2C(C(=O)OCc3ccccc3)=C(C)NC(C)=C2C(=O)OCc2ccccc2)cc1`, for which the T/C was 98 % of control (dose: 0.78 mg/kg/injection, schedule: Q01DX009 (ip), vehicle: distilled water + Tween-80); 93 % of control (dose: 1.56 mg/kg/injection, schedule: Q01DX009 (ip), vehicle: distilled water + Tween-80); 88 % of control and 93 % of control (dose: 3.13 mg/kg/injection, schedule: Q01DX009 (ip), vehicle: distilled water + Tween-80); 92 % of control (dose: 6.25 mg/kg/injection, schedule: Q01DX009 (ip), vehicle: distilled water + Tween-80); 87 % of control and 92 % of control (dose: 12.5 mg/kg/injection, schedule: Q01DX009 (ip), vehicle: distilled water + Tween-80); 95 % of control (dose: 25.0 mg/kg/injection, schedule: Q01DX009 (ip), vehicle: distilled water + Tween-80).

As to `CCO/C=N/c1c(C#N)cnn1C`, the T/C reads like this: under setting [7], 100 % of control; under setting [8], 98 % of control; (dose: 200.0 mg/kg/injection, schedule: Q01DX009 (ip), vehicle: Klucel (hydroxypropylcellulose) (HPC)) 106 % of control; (dose: 400.0 mg/kg/injection, schedule: Q01DX009 (ip), vehicle: Klucel (hydroxypropylcellulose) (HPC)) 103 % of control.

Turning to `Cc1cc(Cl)ccc1O/C(=C/C(=O)O)C(=O)O`, the T/C (dose: 60.0 mg/kg/injection, schedule: Q01DX005 (ip), vehicle: Klucel (hydroxypropylcellulose) (HPC)) is 100 % of control and 98 % of control; the T/C (dose: 120.0 mg/kg/injection, schedule: Q01DX005 (ip), vehicle: Klucel (hydroxypropylcellulose) (HPC)) is 100 % of control and 95 % of control; the T/C (dose: 240.0 mg/kg/injection, schedule: Q01DX005 (ip), vehicle: Klucel (hydroxypropylcellulose) (HPC)) was 101 % of control and 87 % of control.

For `Cc1nc2ccccc2c(=O)n1/N=C1/C(=O)Nc2ccccc21`, the T/C is, setting by setting: (dose: 25.0 mg/kg/injection, schedule: Q01DX005 (ip), vehicle: Klucel (hydroxypropylcellulose) (HPC)) 90 % of control; under setting [4], 90 % of control; under setting [5], 88 % of control; under setting [6], 103 % of control.

Turning to `COc1c2occc2c(OC)c2/c(=N/O)cc(C)oc12`, the T/C (dose: 50.0 mg/kg/injection, schedule: Q01DX009 (ip), vehicle: saline) is 107 % of control; the T/C (dose: 100.0 mg/kg/injection, schedule: Q01DX009 (ip), vehicle: saline) was 98 % of control; the T/C (dose: 200.0 mg/kg/injection, schedule: Q01DX009 (ip), vehicle: saline) is 97 % of control.

Take `C(=N[C@H]1CCCC[C@H]1N=Cc1ccc[nH]1)c1ccc[nH]1`: the T/C was 99 % of control (dose: 6.25 mg/kg/injection, schedule: Q01DX005 (ip), vehicle: saline with Tween-80); 101 % of control (dose: 12.5 mg/kg/injection, schedule: Q01DX005 (ip), vehicle: saline with Tween-80); 100 % of control (dose: 25.0 mg/kg/injection, schedule: Q01DX005 (ip), vehicle: saline with Tween-80); 86 % of control (dose: 100.0 mg/kg/injection, schedule: Q01DX005 (ip), vehicle: saline with Tween-80).

`COC(=O)N1C=CC2ON=C(S(=O)(=O)c3ccccc3)C2C1` (stereo not drawn): the T/C was 108 % of control (dose: 60.0 mg/kg/injection, schedule: Q01DX005 (ip), vehicle: saline with Tween-80); 95 % of control (dose: 120.0 mg/kg/injection, schedule: Q01DX005 (ip), vehicle: saline with Tween-80); 98 % of control (dose: 240.0 mg/kg/injection, schedule: Q01DX005 (ip), vehicle: saline with Tween-80).

Consider `CC(O)C(NC(=O)c1ccccc1)C(=O)O` (stereo not drawn), for which the T/C under setting [1] was 99 % of control, the T/C under setting [2] was 95 % of control and the T/C under setting [3] was 91 % of control.

As to `COc1ccc(CC2(C(=O)O)NCCS2)cc1OC` (stereo not drawn), the T/C reads like this: (dose: 100.0 mg/kg/injection, schedule: Q04DX003 (ip), vehicle: Klucel (hydroxypropylcellulose) (HPC)) 101 % of control; (dose: 200.0 mg/kg/injection, schedule: Q04DX003 (ip), vehicle: Klucel (hydroxypropylcellulose) (HPC)) 98 % of control.

Turning to `Cc1c(N=Nc2ccc([N+](=O)[O-])cc2)nc2scc(-c3ccccc3)n12`, the T/C (dose: 25.0 mg/kg/injection, schedule: Q04DX002 (ip), vehicle: Klucel (hydroxypropylcellulose) (HPC)) is 121 % of control and the T/C (dose: 100.0 mg/kg/injection, schedule: Q04DX002 (ip), vehicle: Klucel (hydroxypropylcellulose) (HPC)) is 86 % of control.

Turning to `Cc1ccc(Cl)cc1NC(=O)Nc1nccs1`, the T/C by setting is: (dose: 25.0 mg/kg/injection, schedule: Q01DX009 (ip), vehicle: Klucel (hydroxypropylcellulose) (HPC)) 93 % of control; under setting [7], 92 % of control; under setting [8], 109 % of control.

As to `C=C1C[C@](OC)([C@H](O)C(=O)N[C@@H](OC)[C@@H]2C[C@@H](O)C(C)(C)[C@@H](C[C@@H](COC)OC)O2)O[C@H](C)[C@@H]1C`, the T/C was 153 % of control (dose: 6.2 micrograms/kg/injection, schedule: Q01DX005 (ip), vehicle: Klucel (hydroxypropylcellulose) (HPC)); 152 % of control (dose: 12.5 micrograms/kg/injection, schedule: Q01DX005 (ip), vehicle: Klucel (hydroxypropylcellulose) (HPC)); 161 % of control and 162 % of control (dose: 25.0 micrograms/kg/injection, schedule: Q01DX005 (ip), vehicle: Klucel (hydroxypropylcellulose) (HPC)); 152 % of control (dose: 50.0 micrograms/kg/injection, schedule: Q01DX005 (ip), vehicle: Klucel (hydroxypropylcellulose) (HPC)).
